Measurements as given in patent US20230257347A1 (priority 2020, published 2023).
Where a name gives a salt, the structure may show the parent alone.

Experiments:
[1] = molecular target: T1, Endothelin Receptor Type A (EDNRA) (Homo sapiens, UniProt P25101); assay: Calcium flux assay, EDNRA; assay type: cell-based
T1 sequence (P25101 21-427): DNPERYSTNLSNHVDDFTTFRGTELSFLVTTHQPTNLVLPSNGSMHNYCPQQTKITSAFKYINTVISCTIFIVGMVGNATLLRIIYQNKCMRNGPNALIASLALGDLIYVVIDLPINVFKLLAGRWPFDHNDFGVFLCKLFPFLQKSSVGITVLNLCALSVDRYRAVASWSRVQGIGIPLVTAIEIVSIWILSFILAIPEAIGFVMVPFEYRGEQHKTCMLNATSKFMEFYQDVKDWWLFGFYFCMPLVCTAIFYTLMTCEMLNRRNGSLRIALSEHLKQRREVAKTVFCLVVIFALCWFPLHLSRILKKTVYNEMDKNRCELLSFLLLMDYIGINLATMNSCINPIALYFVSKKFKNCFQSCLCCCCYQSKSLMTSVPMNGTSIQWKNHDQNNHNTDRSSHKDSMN

[2] = molecular target: T2, Muscarinic acetylcholine Receptor M1 (CHRM1) (Homo sapiens, UniProt P11229); assay: cell-based
T2 sequence (P11229 1-460): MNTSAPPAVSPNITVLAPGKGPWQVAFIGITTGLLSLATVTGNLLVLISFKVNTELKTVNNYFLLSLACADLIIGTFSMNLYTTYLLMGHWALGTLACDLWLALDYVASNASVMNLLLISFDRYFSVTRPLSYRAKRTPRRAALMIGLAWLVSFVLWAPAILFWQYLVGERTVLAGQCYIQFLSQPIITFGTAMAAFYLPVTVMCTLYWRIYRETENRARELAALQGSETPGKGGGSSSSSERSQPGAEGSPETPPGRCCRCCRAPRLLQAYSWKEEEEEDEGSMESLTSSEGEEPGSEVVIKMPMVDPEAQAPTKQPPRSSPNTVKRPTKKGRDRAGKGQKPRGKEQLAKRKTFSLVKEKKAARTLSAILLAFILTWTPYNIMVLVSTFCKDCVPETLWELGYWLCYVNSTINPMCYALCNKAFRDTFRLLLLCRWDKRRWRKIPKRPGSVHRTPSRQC

[3] = molecular target: Opioid Receptor Kappa 1 (OPRK1) (Homo sapiens, UniProt P41145); assay: cAMP assay, OPRK1; assay type: cell-based
Opioid Receptor Kappa 1 (OPRK1), sequence (P41145 whole entry): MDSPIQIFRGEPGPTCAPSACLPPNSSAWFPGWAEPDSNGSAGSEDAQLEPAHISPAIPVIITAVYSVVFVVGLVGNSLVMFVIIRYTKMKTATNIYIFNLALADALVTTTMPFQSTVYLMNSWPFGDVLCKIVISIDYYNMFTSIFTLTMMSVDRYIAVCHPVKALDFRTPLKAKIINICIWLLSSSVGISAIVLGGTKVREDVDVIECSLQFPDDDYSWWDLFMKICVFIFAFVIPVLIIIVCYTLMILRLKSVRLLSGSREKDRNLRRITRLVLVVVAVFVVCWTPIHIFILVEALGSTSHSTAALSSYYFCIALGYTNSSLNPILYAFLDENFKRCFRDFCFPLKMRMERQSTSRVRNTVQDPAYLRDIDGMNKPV

[4] = molecular target: T3, Norepinephrine transporter (NET) (Homo sapiens, UniProt P23975); assay: Monoamine transporter uptake assay (fluorescent substrate), NET; assay type: cell-based
T3 construct: expressed in transfected cells
T3 sequence (P23975 whole entry): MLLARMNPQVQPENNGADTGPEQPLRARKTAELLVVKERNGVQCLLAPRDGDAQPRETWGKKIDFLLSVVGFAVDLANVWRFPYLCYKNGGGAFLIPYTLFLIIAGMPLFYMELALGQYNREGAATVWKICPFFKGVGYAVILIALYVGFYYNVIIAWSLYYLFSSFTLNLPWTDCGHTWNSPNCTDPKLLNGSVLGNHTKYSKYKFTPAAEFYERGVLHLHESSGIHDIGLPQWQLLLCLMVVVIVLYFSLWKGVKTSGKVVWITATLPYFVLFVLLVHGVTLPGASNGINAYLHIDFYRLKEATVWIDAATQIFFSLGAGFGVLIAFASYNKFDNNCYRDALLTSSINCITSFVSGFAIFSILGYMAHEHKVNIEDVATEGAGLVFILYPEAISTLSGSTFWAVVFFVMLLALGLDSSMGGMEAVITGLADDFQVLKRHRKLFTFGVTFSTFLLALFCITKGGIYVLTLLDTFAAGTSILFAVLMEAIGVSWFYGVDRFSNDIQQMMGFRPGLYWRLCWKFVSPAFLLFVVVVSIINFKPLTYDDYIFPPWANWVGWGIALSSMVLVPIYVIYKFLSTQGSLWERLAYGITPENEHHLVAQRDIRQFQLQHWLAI

[5] = molecular target: 5-Hydroxytryptamine (Serotonin) Receptor 2A (5-HT2A) (Homo sapiens, UniProt P28223); assay: Calcium flux secondary messenger assay, 5-HT2A; assay type: cell-based
5-Hydroxytryptamine (Serotonin) Receptor 2A (5-HT2A), sequence (P28223 whole entry, looked up): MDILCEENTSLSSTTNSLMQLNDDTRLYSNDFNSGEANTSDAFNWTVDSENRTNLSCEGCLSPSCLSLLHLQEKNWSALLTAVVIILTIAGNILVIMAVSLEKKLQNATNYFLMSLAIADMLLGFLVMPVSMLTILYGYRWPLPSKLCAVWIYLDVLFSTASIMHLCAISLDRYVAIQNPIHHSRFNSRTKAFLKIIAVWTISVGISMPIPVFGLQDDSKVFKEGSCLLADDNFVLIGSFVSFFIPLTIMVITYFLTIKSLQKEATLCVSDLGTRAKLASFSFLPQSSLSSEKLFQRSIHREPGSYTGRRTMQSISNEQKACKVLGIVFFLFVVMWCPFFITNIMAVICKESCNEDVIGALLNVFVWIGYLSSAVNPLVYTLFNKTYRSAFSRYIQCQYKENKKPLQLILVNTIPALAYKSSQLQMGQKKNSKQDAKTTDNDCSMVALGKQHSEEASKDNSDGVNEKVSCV

hERG = molecular target: T4, hERG (Homo sapiens, UniProt Q12809); assay: Ion channel assay, hERG; assay type: cell-based
T4 construct: expressed in transfected cells
T4 sequence (Q12809 whole entry): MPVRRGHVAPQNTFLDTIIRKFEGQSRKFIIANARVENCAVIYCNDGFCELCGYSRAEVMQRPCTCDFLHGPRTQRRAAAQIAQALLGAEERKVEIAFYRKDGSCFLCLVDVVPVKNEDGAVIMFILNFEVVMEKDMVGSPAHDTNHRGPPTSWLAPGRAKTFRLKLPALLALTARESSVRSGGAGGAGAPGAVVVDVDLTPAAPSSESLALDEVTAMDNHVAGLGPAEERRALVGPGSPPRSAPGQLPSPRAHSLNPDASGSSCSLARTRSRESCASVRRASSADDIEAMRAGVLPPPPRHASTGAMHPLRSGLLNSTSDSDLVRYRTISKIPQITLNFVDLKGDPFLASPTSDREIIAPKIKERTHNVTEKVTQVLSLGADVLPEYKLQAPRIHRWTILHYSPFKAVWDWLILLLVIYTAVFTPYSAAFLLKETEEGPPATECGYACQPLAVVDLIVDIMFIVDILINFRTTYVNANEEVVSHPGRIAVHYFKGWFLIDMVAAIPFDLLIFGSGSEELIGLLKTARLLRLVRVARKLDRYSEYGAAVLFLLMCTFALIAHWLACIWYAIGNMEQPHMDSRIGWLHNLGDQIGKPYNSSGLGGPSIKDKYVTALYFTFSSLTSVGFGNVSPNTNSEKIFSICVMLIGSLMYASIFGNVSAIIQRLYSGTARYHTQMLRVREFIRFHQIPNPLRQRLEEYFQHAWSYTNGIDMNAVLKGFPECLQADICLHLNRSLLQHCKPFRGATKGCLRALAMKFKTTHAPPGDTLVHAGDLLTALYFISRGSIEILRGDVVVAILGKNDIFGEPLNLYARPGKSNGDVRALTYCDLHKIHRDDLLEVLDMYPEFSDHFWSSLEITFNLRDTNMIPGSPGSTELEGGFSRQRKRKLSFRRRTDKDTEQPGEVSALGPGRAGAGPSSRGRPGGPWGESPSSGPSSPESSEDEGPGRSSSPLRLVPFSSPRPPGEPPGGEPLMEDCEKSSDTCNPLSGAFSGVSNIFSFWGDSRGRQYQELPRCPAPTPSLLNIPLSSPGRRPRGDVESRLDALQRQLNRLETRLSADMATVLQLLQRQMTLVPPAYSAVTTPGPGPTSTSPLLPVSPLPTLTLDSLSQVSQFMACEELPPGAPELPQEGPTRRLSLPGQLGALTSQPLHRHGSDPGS

[6] = molecular target: T5, Lymphocyte Cell-Specific Protein-Tyrosine Kinase (LCK) (Homo sapiens, UniProt P06239); assay: KINOMEscan binding assay, LCK
T5 construct: made in house; host or cells: E. coli BL21-derived host (T7 phage) or HEK-293
T5 sequence (P06239 whole entry): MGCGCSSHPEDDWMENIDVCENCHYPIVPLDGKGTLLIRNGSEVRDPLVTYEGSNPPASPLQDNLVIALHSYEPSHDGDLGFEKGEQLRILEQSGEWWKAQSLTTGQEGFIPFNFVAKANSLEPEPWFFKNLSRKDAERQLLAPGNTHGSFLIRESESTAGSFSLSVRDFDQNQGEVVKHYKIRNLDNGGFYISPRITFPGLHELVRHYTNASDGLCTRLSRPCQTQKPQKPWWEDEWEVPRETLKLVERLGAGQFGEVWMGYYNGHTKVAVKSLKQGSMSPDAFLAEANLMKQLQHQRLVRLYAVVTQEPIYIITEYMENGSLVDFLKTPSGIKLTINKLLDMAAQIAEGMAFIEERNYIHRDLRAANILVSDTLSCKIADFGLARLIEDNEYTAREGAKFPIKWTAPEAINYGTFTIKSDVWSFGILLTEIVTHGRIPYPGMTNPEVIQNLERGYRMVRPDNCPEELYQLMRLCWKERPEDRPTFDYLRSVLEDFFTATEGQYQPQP

[7] = molecular target: T6, Cholecystokinin Receptor A (CCKAR) (Homo sapiens, UniProt P32238); assay: Calcium flux assay, CCKAR; assay type: cell-based
T6 sequence (P32238 1-428): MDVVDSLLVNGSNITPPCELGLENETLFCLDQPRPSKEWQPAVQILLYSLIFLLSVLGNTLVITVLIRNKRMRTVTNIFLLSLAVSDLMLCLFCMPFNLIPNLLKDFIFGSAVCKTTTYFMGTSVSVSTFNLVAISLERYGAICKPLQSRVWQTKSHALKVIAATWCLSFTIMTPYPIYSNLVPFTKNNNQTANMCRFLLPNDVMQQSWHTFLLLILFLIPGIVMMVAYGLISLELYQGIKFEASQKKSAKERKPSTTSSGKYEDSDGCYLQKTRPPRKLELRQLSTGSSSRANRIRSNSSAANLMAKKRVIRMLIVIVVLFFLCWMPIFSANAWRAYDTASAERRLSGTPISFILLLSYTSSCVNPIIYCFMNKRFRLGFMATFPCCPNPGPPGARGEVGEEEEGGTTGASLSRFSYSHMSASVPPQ

[8] = molecular target: T7, Adrenergic Receptor α2A (ADRA2A) (Homo sapiens, UniProt P08913); assay: cAMP assay, ADRA2A; assay type: cell-based
T7 sequence (P08913 1-465): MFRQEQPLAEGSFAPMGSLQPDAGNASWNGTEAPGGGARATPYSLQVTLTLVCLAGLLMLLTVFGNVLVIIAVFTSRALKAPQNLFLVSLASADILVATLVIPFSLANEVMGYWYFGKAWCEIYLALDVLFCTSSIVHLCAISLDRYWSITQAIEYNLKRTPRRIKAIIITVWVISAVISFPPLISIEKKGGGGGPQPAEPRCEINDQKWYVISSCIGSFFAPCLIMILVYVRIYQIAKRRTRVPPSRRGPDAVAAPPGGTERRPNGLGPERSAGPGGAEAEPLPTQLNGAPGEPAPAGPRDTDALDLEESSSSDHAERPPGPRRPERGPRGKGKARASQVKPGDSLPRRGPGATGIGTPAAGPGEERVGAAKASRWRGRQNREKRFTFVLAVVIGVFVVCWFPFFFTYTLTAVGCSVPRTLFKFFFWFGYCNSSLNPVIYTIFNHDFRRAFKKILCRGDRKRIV

MDMA-trained rats = assay: Drug discrimination in rats trained to distinguish MDMA from placebo; assay type: in vivo; conditions: 1, 2, and 4 mg/kg intraperitoneal

## CNC(C)C(=O)c1c[nH]c2ccc(Br)cc12 (centres unmarked) [BK-5Br-NM-AMT, 1-(5-bromo-1H-indol-3-yl)-2-(methylamino) propan-1-one hydrochloride]
[1]
  EC50: > 10 µM
  IC50: > 10 µM
[2]
  EC50: > 10 µM
  IC50: > 10 µM
[3]
  EC50: > 10 µM
  IC50: > 10 µM
[4]
  IC50: > 10 µM
[5]
  EC50: > 10 µM
  IC50: 8.63 µM
hERG
  IC50: > 10 µM
[6]
  IC50: > 10 µM
[7]
  EC50: > 10 µM
  IC50: > 10 µM
[8]
  EC50: > 10 µM
  IC50: > 10 µM

## CNC(C)C(=O)c1c[nH]c2ccc(Cl)cc12 (centres unmarked) [BK-5Cl-NM-AMT, 1-(5-chloro-1H-indol-3-yl)-2-(methylamino) propan-1-one hydrochloride]
[1]
  EC50: > 10 µM
  IC50: > 10 µM
[2]
  EC50: > 10 µM
  IC50: > 10 µM
[3]
  EC50: > 10 µM
  IC50: > 10 µM
[4]
  IC50: > 10 µM
[5]
  EC50: > 10 µM
  IC50: > 10 µM
hERG
  IC50: > 10 µM
[6]
  IC50: > 10 µM
[7]
  EC50: > 10 µM
  IC50: > 10 µM
[8]
  EC50: > 10 µM
  IC50: > 10 µM

## CNC(C)C(=O)c1c[nH]c2ccc(F)cc12 (centres unmarked) [BK-5F-NM-AMT, 1-(5-Fluoro-1H-indol-3-yl)-2-(methylamino) propan-1-one hydrochloride]
[1]
  EC50: > 10 µM
  IC50: > 10 µM
[2]
  EC50: > 10 µM
  IC50: > 10 µM
[3]
  EC50: > 10 µM
  IC50: > 10 µM
[4]
  IC50: > 10 µM
[5]
  EC50: > 10 µM
  IC50: > 10 µM
hERG
  IC50: > 10 µM
[6]
  IC50: > 10 µM
[7]
  EC50: > 10 µM
  IC50: > 10 µM
MDMA-trained rats; 30 min prior to test, four MDMA-trained rats
  percent responses on the MDMA-associated lever: significantly and dose-dependently different from those of MDMA
MDMA-trained rats; control measure
  rate of lever pressing (responses per second): not altered
[8]
  EC50: > 10 µM
  IC50: > 10 µM
